# Measured values as given in paper PMC11271275, “The structural insight into the functional modulation of human anion exchanger 3” (Nature Communications, 2024).
# T1: AE2 (human SLC4A2) (Homo sapiens, UniProt P04920)
# T1 sequence (P04920 1-1241): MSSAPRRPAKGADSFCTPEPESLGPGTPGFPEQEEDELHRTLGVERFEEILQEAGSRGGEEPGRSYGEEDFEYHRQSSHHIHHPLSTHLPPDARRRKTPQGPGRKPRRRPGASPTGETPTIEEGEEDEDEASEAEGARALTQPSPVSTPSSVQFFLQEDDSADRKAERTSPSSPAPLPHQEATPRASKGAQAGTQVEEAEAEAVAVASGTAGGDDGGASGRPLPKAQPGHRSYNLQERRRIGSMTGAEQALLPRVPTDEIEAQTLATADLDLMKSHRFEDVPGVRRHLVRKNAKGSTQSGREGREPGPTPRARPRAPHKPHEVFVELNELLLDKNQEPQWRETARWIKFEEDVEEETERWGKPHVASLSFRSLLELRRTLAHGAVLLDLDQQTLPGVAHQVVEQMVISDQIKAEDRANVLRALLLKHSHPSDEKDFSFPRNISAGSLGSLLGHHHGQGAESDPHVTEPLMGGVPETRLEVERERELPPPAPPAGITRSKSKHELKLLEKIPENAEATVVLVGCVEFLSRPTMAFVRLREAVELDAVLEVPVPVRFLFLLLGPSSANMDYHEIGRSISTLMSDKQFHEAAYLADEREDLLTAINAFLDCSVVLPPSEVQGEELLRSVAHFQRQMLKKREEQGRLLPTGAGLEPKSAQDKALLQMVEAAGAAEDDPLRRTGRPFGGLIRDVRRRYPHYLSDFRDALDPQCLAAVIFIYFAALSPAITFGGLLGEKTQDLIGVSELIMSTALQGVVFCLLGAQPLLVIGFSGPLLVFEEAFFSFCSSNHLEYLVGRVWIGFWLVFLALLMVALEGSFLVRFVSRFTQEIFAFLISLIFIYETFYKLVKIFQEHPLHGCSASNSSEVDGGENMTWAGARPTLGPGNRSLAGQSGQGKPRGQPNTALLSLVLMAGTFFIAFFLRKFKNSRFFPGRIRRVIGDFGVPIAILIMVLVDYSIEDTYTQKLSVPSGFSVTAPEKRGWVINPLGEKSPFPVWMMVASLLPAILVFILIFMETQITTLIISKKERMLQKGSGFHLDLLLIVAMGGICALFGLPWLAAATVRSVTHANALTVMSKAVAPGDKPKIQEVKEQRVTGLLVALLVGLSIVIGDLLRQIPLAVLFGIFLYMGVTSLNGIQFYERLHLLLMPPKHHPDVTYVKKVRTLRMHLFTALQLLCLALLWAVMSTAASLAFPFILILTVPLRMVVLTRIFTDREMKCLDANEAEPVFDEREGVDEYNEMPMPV
# B1: human anion exchanger 3, cardiac isoform (hAE3) (natural protein, UniProt P48751-1 300-1232, looked up)
# chain: GLAPILRRKKKKKKLDRRPHEVFVELNELMLDRSQEPHWRETARWIKFEEDVEEETERWGKPHVASLSFRSLLELRRTIAHGAALLDLEQTTLPGIAHLVVETMIVSDQIRPEDRASVLRTLLLKHSHPNDDKDSGFFPRNPSSSSMNSVLGNHHPTPSHGPDGAVPTMADDLGEPAPLWPHDPDAKEKPLHMPGGDGHRGKSLKLLEKIPEDAEATVVLVGCVPFLEQPAAAFVRLNEAVLLESVLEVPVPVRFLFVMLGPSHTSTDYHELGRSIATLMSDKLFHEAAYQADDRQDLLSAISEFLDGSIVIPPSEVEGRDLLRSVAAFQRELLRKRREREQTKVEMTTRGGYTAPGKELSLELGGSEATPEDDPLLRTGSVFGGLVRDVRRRYPHYPSDLRDALHSQCVAAVLFIYFAALSPAITFGGLLGEKTEGLMGVSELIVSTAVLGVLFSLLGAQPLLVVGFSGPLLVFEEAFFKFCRAQDLEYLTGRVWVGLWLVVFVLALVAAEGSFLVRYISPFTQEIFAFLISLIFIYETFYKLYKVFTEHPLLPFYPPEGALEGSLDAGLEPNGSALPPTEGPPSPRNQPNTALLSLILMLGTFFIAFFLRKFRNSRFLGGKARRIIGDFGIPISILVMVLVDYSITDTYTQKLTVPTGLSVTSPDKRSWFIPPLGSARPFPPWMMVAAAVPALLVLILIFMETQITALIVSQKARRLLKGSGFHLDLLLIGSLGGLCGLFGLPWLTAATVRSVTHVNALTVMRTAIAPGDKPQIQEVREQRVTGVLIASLVGLSIVMGAVLRRIPLAVLFGIFLYMGVTSLSGIQLSQRLLLILMPAKHHPEQPYVTKVKTWRMHLFTCIQLGCIALLWVVKSTAASLAFPFLLLLTVPLRHCLLPRLFQDRELQALDSEDAEPNFDEDGQDEYNELHMPV
# notes: Anion exchanger 3 (AE3, SLC4A3), human, cardiac isoform; amino acids 300-1232 by the numbering of UniProt P48751-1 (results); the methods name the cDNA as human Cardiac Anion Exchanger 3, UniProt P48751-2; the introduction says cAE3 lacks residues 1-296 of bAE3; A TEV protease site follows the N-terminal tags in the modified pCAGGS vector; no cleavage is described; The N-terminal domain was not …
# Legend:
# AE2 (human SLC4A2) [1] = biological target: T1, AE2 (human SLC4A2); test: BCECF intracellular pH assay on Cl- reintroduction, SLC4A2-KO HEK293F cells; type: cell-based; set-up: overexpressed in SLC4A2-KO HEK293F cells; P04920-1 printed for the AE2 part of the chimera; details: 40 µM DIDS; 25 mM NaHCO3, pH 7.4
# [2] = biological target: hAE3^NTD2^TMD chimera (NTD of hAE3 fused to TMD of hAE2) (human) (UniProt P04920); test: cryo-EM structure; hAE3^NTD2^TMD chimera in GDN; 300 kV Titan Krios, C2 symmetry; 3.35 Å; TMDs inward-facing
# AE2 (human SLC4A2) [3] = biological target: T1, AE2 (human SLC4A2); details: Cl-/HCO3- exchange; 25 mM NaHCO3, pH 7.4
# [4] = biological target: the molecule itself; test: SEC + other: 200 kV cryo-EM analysis; Superose 6 Increase 10/300 GL, 150 mM NaCl, 20 mM HEPES pH 7.4, 0.01% GDN, 4 °C; protein solubilised with LMNG
molecule,measurement,setting,value
"O=S(=O)(O)c1cc(N=C=S)ccc1/C=C/c1ccc(N=C=S)cc1S(=O)(=O)O [DIDS, 4,4’-diisothiocyanatostilbene-2,2’-disulfonate]",inhibition at 40 μM,AE2 (human SLC4A2) [1],activities of AE2 and AE3 could be inhibited by adding DIDS
hAE3^NTD2^TMD chimera (NTD of hAE3 fused to TMD of hAE2) (from UniProt P04920-1 672-1241),stoichiometry N,[2],2
O=C(O)O [HCO3^−],"BCECF intracellular pH assay on Cl- reintroduction, SLC4A2-KO HEK293F cells",AE2 (human SLC4A2) [3],a lower pH-modulating function than that observed for AE2
B1,stoichiometry N,[4],2
